Reference: patent US4731451A, “N-((2-oxo-3(2H)benzothiazolyl)methyl)-2-chloroacetanilides” (Monsanto Company, priority 1980, dated 1988)

Key:
Assay in all cases: Pre-emergent herbicidal activity (Table II)
Type in all cases: in vivo
Conditions in all cases: 2-3 weeks
Lambsquarters = system: Lambsquarters
Description: (§1) The pre-emergence tests are conducted as follows:
(§2) A good grade of top soil is placed in aluminum pans and compacted to a depth of three-eighths to one-half inch from the top of the pan. On the top of the soil is placed a predetermined number of seeds or vegetative propagules of various plant species. The soil required to level fill the pans after seeding or adding vegetative propagules is weighed into a pan. A known amount of the active ingredient applied in a solvent or as a wettable powder suspension and the soil are thoroughly mixed, and used as a cover layer for prepared pans. After treatment, the pans are moved into a greenhouse bench where they are watered from below as needed to give adequate moisture for germination and growth.
(§3) Approximately 2-3 weeks after seeding and treating, the plants are observed and the results recorded. The herbicidal rating is obtained by means of fixed scale based on the percent injury of each plant species. The ratings are defined as follows: […]
(§4) The plant species utilized in one set of tests, the data for which are shown in Table II, are identified by letter in accordance with the following legend: […]

Quackgrass = system: Quackgrass
Description: as §1, §2, §3, §4

Johnsongrass = system: Johnsongrass
Description: as §1, §2, §3, §4

Morningglory = system: Morningglory
Description: as §1, §2, §3, §4

Barnyardgrass = system: Barnyardgrass
Description: as §1, §2, §3, §4

Smartweed = system: Smartweed
Description: as §1, §2, §3, §4

Yellow Nutsedge = system: Yellow Nutsedge
Description: as §1, §2, §3, §4

Downy Brome = system: Downy Brome
Description: as §1, §2, §3, §4

Cocklebur = system: Cocklebur
Description: as §1, §2, §3, §4

Canada Thistle = system: Canada Thistle
Description: as §1, §2, §3, §4

Velvetleaf = system: Velvetleaf
Description: as §1, §2, §3, §4
Further: ranges in brackets are in %.

## CCC1=C(N(Cn2c(=O)sc3ccccc32)C(=O)CCl)C(CC)CCC1 (stereo not drawn) [Example 5, N--[(2-oxo-3(2H)--benzothiazolyl)methyl]-N--(2,6-diethyl-1-cyclohexen-1-yl)-2-chloro-acetamide]
Lambsquarters; 5.6 kg/ha
  Herbicidal rating: 1 (25-49)
Lambsquarters; 11.2 kg/ha
  Herbicidal rating: 1 (25-49)
Quackgrass; 5.6 kg/ha
  Herbicidal rating: 0 (0-24)
Quackgrass; 11.2 kg/ha
  Herbicidal rating: 0 (0-24)
Johnsongrass; 5.6 kg/ha
  Herbicidal rating: 0 (0-24)
Johnsongrass; 11.2 kg/ha
  Herbicidal rating: 0 (0-24)
Morningglory; 5.6 kg/ha
  Herbicidal rating: 0 (0-24)
Morningglory; 11.2 kg/ha
  Herbicidal rating: 0 (0-24)
Barnyardgrass; 5.6 kg/ha
  Herbicidal rating: 1 (25-49)
Barnyardgrass; 11.2 kg/ha
  Herbicidal rating: 1 (25-49)
Smartweed; 5.6 kg/ha
  Herbicidal rating: 0 (0-24)
Smartweed; 11.2 kg/ha
  Herbicidal rating: 0 (0-24)
Yellow Nutsedge; 5.6 kg/ha
  Herbicidal rating: 0 (0-24)
Yellow Nutsedge; 11.2 kg/ha
  Herbicidal rating: 0 (0-24)
Downy Brome; 5.6 kg/ha
  Herbicidal rating: 0 (0-24)
Downy Brome; 11.2 kg/ha
  Herbicidal rating: 0 (0-24)
Cocklebur; 5.6 kg/ha
  Herbicidal rating: 0 (0-24)
Cocklebur; 11.2 kg/ha
  Herbicidal rating: 0 (0-24)
Canada Thistle; 5.6 kg/ha
  Herbicidal rating: 0 (0-24)
Canada Thistle; 11.2 kg/ha
  Herbicidal rating: 0 (0-24)
Velvetleaf; 5.6 kg/ha
  Herbicidal rating: 0 (0-24)
Velvetleaf; 11.2 kg/ha
  Herbicidal rating: 0 (0-24)

## CC1=C(N(Cn2c(=O)sc3cc(Br)ccc32)C(=O)CCl)C(C)CCC1 (stereo not drawn) [Example 7, N--[(6-bromo-2-oxo-3(2H)--benzothiazolyl)methyl]-N--(2,6-dimethyl-1-cyclohexen-1-yl)-2-chloroacetamide]
Lambsquarters; 5.6 kg/ha
  Herbicidal rating: 0 (0-24)
Lambsquarters; 11.2 kg/ha
  Herbicidal rating: 1 (25-49)
Quackgrass; 5.6 kg/ha
  Herbicidal rating: 0 (0-24)
Quackgrass; 11.2 kg/ha
  Herbicidal rating: 0 (0-24)
Johnsongrass; 5.6 kg/ha
  Herbicidal rating: 0 (0-24)
Johnsongrass; 11.2 kg/ha
  Herbicidal rating: 0 (0-24)
Morningglory; 5.6 kg/ha
  Herbicidal rating: 0 (0-24)
Morningglory; 11.2 kg/ha
  Herbicidal rating: 0 (0-24)
Barnyardgrass; 5.6 kg/ha
  Herbicidal rating: 1 (25-49)
Barnyardgrass; 11.2 kg/ha
  Herbicidal rating: 1 (25-49)
Smartweed; 5.6 kg/ha
  Herbicidal rating: 0 (0-24)
Smartweed; 11.2 kg/ha
  Herbicidal rating: 0 (0-24)
Yellow Nutsedge; 5.6 kg/ha
  Herbicidal rating: 0 (0-24)
Yellow Nutsedge; 11.2 kg/ha
  Herbicidal rating: 0 (0-24)
Downy Brome; 5.6 kg/ha
  Herbicidal rating: 0 (0-24)
Downy Brome; 11.2 kg/ha
  Herbicidal rating: 0 (0-24)
Cocklebur; 5.6 kg/ha
  Herbicidal rating: 0 (0-24)
Cocklebur; 11.2 kg/ha
  Herbicidal rating: 0 (0-24)
Canada Thistle; 5.6 kg/ha
  Herbicidal rating: 0 (0-24)
Canada Thistle; 11.2 kg/ha
  Herbicidal rating: 0 (0-24)
Velvetleaf; 5.6 kg/ha
  Herbicidal rating: 0 (0-24)
Velvetleaf; 11.2 kg/ha
  Herbicidal rating: 0 (0-24)

## CCOc1ccc2c(c1)sc(=O)n2CN(C(=O)CCl)C1=C(C)C(C)CCC1 (stereo not drawn) [Example 8, N--[(6-ethoxy-2-oxo-3(2H)--benzothiazolyl)methyl]-N--(2,3-dimethyl-1-cyclohexen-1-yl)-2-chloroacetamide]
Lambsquarters; 5.6 kg/ha
  Herbicidal rating: 0 (0-24)
Lambsquarters; 11.2 kg/ha
  Herbicidal rating: 0 (0-24)
Quackgrass; 5.6 kg/ha
  Herbicidal rating: 0 (0-24)
Quackgrass; 11.2 kg/ha
  Herbicidal rating: 0 (0-24)
Johnsongrass; 5.6 kg/ha
  Herbicidal rating: 0 (0-24)
Johnsongrass; 11.2 kg/ha
  Herbicidal rating: 0 (0-24)
Morningglory; 5.6 kg/ha
  Herbicidal rating: 0 (0-24)
Morningglory; 11.2 kg/ha
  Herbicidal rating: 0 (0-24)
Barnyardgrass; 5.6 kg/ha
  Herbicidal rating: 1 (25-49)
Barnyardgrass; 11.2 kg/ha
  Herbicidal rating: 0 (0-24)
Smartweed; 5.6 kg/ha
  Herbicidal rating: 0 (0-24)
Smartweed; 11.2 kg/ha
  Herbicidal rating: 0 (0-24)
Yellow Nutsedge; 5.6 kg/ha
  Herbicidal rating: 0 (0-24)
Yellow Nutsedge; 11.2 kg/ha
  Herbicidal rating: 0 (0-24)
Downy Brome; 5.6 kg/ha
  Herbicidal rating: 0 (0-24)
Downy Brome; 11.2 kg/ha
  Herbicidal rating: 0 (0-24)
Cocklebur; 5.6 kg/ha
  Herbicidal rating: 0 (0-24)
Canada Thistle; 5.6 kg/ha
  Herbicidal rating: 0 (0-24)
Canada Thistle; 11.2 kg/ha
  Herbicidal rating: 0 (0-24)
Velvetleaf; 5.6 kg/ha
  Herbicidal rating: 0 (0-24)
Velvetleaf; 11.2 kg/ha
  Herbicidal rating: 0 (0-24)

## CC1=C(N(Cn2c(=O)oc3ccccc32)C(=O)CCl)C(C)CCC1 (stereo not drawn) [Example 11, N--[(2-oxo-3(2H)--benzoxazolyl)methyl]-N--(2,6-dimethyl-1-cyclohexen-1-yl)-2-chloro-amide]
Lambsquarters; 5.6 kg/ha
  Herbicidal rating: 2 (50-74)
Lambsquarters; 11.2 kg/ha
  Herbicidal rating: 1 (25-49)
Quackgrass; 5.6 kg/ha
  Herbicidal rating: 1 (25-49)
Quackgrass; 11.2 kg/ha
  Herbicidal rating: 3 (75-100)
Johnsongrass; 5.6 kg/ha
  Herbicidal rating: 0 (0-24)
Johnsongrass; 11.2 kg/ha
  Herbicidal rating: 0 (0-24)
Morningglory; 5.6 kg/ha
  Herbicidal rating: 0 (0-24)
Morningglory; 11.2 kg/ha
  Herbicidal rating: 0 (0-24)
Barnyardgrass; 5.6 kg/ha
  Herbicidal rating: 3 (75-100)
Barnyardgrass; 11.2 kg/ha
  Herbicidal rating: 3 (75-100)
Smartweed; 5.6 kg/ha
  Herbicidal rating: 0 (0-24)
Smartweed; 11.2 kg/ha
  Herbicidal rating: 0 (0-24)
Yellow Nutsedge; 5.6 kg/ha
  Herbicidal rating: 3 (75-100)
Yellow Nutsedge; 11.2 kg/ha
  Herbicidal rating: 1 (25-49)
Downy Brome; 5.6 kg/ha
  Herbicidal rating: 3 (75-100)
Downy Brome; 11.2 kg/ha
  Herbicidal rating: 3 (75-100)
Cocklebur; 5.6 kg/ha
  Herbicidal rating: 0 (0-24)
Cocklebur; 11.2 kg/ha
  Herbicidal rating: 0 (0-24)
Canada Thistle; 5.6 kg/ha
  Herbicidal rating: 0 (0-24)
Canada Thistle; 11.2 kg/ha
  Herbicidal rating: 0 (0-24)
Velvetleaf; 5.6 kg/ha
  Herbicidal rating: 0 (0-24)
Velvetleaf; 11.2 kg/ha
  Herbicidal rating: 0 (0-24)
